The results in this text go back to ChEMBL document CHEMBL1153483, “Synthesis and evaluation of novel substituted 5-hydroxycoumarin and pyranocoumarin derivatives exhibiting significant antiproliferative activity against breast cancer cell lines” (Bioorg Med Chem Lett, 2009).

One assay deals with MCF7. Description: Antiproliferative activity against human MCF7 cells after 48 hrs by MTT assay. Format: functional, cell-based. In general terms: Formazan colour is commonly taken as a measure of viable cells.
A further assay relates to MDA-MB-231. Nature of the assay: Antiproliferative activity against human MDA-MB-231 cells after 48 hrs by MTT assay. Format: functional, cell-based.
[1] abbreviates: Homo sapiens, MCF7, 48 h, read-out: IC50.
The mark [2] stands for this setting: Homo sapiens, MDA-MB-231, 48 h, read-out: IC50.

As usually defined, the IC50 is the concentration that inhibits the measured activity by half.

With `CCCc1cc(=O)oc2cc(I)cc(O)c12`, the half-maximal inhibitory concentration (IC50) is 26.8 µM with MCF7 (setting [1]) and “Not Active” in the assay on MDA-MB-231 (mda-mb-231).
On to `CCCc1cc(=O)oc2cc(-c3cccc4c3Sc3ccccc3S4)c3c(c12)OC(C)(C)C=C3`, for which the IC50 was greater than 100 µM with MCF7 (setting [1]) and “Not Active” in the assay with MDA-MB-231 (mda-mb-231).
With `CC1(C)C=Cc2c(I)cc3oc(=O)cc(-c4ccccc4)c3c2O1`, the IC50 is 54.3 µM with MCF7 (setting [1]) and “Not Active” in the assay with MDA-MB-231 (mda-mb-231).
In the case of `CC1(C)C=Cc2c(-c3cccc4c3Sc3ccccc3S4)cc3oc(=O)cc(-c4ccccc4)c3c2O1`, the Activity result in the assay on MCF7 and with MDA-MB-231 was “Dose-dependent effect” each time. Moreover, the IC50 in the assay on MCF7 (setting [1]) was 7.2 µM; with MDA-MB-231 (setting [2]) it was 33.6 µM.
`O=c1cc(-c2ccccc2)c2c(O)cc(-c3cccc4c3Sc3ccccc3S4)cc2o1`: the Activity result with MCF7 and in the assay with MDA-MB-231 was “Dose-dependent effect” in each case. For the same compound, the values for the IC50 with MCF7 (setting [1]) and in the assay on MDA-MB-231 (setting [2]) were 14.2 µM and 9.3 µM, respectively.
Take `CCCc1cc(=O)oc2cc(-c3ccc(NS(C)(=O)=O)cc3)c3c(c12)OC(C)(C)C=C3`: the Activity result in the assay on MCF7 and in the assay with MDA-MB-231 was “Dose-dependent effect” throughout. In addition, the IC50 in the assay with MCF7 (setting [1]) was 3.3 µM; in the assay with MDA-MB-231 (setting [2]), 27.2 µM.
In the case of `CCCc1cc(=O)oc2cc(-c3ccc(NC(=O)CCC(=O)O)cc3)c3c(c12)OC(C)(C)C=C3`, the IC50 result in the assay with MCF7 (mcf7) and with MDA-MB-231 (mda-mb-231) was “Not Active” throughout.
With `O=c1cc(-c2ccccc2)c2c(O)cc(I)cc2o1`, the IC50 is 25 µM with MCF7 (setting [1]) and “Not Active” in the assay with MDA-MB-231 (mda-mb-231).
On the same counts, the results for `Cc1cc(=O)oc2cc(I)cc(O)c12` are 18.3 µM and “Not Active”.
Consider `CCCc1cc(=O)oc2cc(-c3cc4ccccc4s3)c3c(c12)OC(C)(C)C=C3`, for which the IC50 in the assay with MCF7 (setting [1]) was 22.8 µM; in the assay with MDA-MB-231 (mda-mb-231), “Not Active”.
With `CCCc1cc(=O)oc2cc(I)c3c(c12)OC(C)(C)C=C3`, the results for the IC50 with MCF7 (setting [1]) and in the assay with MDA-MB-231 (mda-mb-231) were 13.7 µM and “Not Active”, respectively.
As to `CC1(C)C=Cc2c(-c3ccc(NS(C)(=O)=O)cc3)cc3oc(=O)cc(-c4ccccc4)c3c2O1`, the Activity result with MCF7 and in the assay with MDA-MB-231 was “Dose-dependent effect” throughout. Besides, the IC50 was 5.3 µM in the assay with MCF7 (setting [1]) and 28.9 µM in the assay with MDA-MB-231 (setting [2]).
Consider `CCCc1cc(=O)oc2cc(-c3cccc4c3Sc3ccccc3S4)cc(O)c12`, for which the Activity entry with MCF7 and in the assay on MDA-MB-231 was “Dose-dependent effect” throughout. For the same compound, the IC50 in the assay with MCF7 (setting [1]) was determined as 14.4 µM; in the assay on MDA-MB-231 (setting [2]) it was 7.9 µM.
As for `CCCc1cc(=O)oc2cc(-c3cc4ccccc4s3)cc(O)c12`, the figures for the IC50 with MCF7 (setting [1]) and in the assay on MDA-MB-231 (setting [2]) were 22.3 µM and 50 µM, respectively.
With `Cc1cc(=O)oc2cc(I)c3c(c12)OC(C)(C)C=C3`, the IC50 with MCF7 (setting [1]) was 30.7 µM; in the assay on MDA-MB-231 (mda-mb-231) it was “Not Active”.
For `Cc1cc(=O)oc2cc(-c3ccc(NC(=O)CCC(=O)O)cc3)c3c(c12)OC(C)(C)C=C3`, the IC50 result in the assay with MCF7 (mcf7) and in the assay on MDA-MB-231 (mda-mb-231) was “Not Active” in each case.
In the case of `CC1(C)C=Cc2c(-c3ccc(NC(=O)CCC(=O)O)cc3)cc3oc(=O)cc(-c4ccccc4)c3c2O1`, the IC50 entry with MCF7 (mcf7) and in the assay on MDA-MB-231 (mda-mb-231) was “Not Active” in each case.
On to `Cc1cc(=O)oc2cc(-c3ccc(NS(C)(=O)=O)cc3)c3c(c12)OC(C)(C)C=C3`, for which the Activity result in the assay with MCF7 and with MDA-MB-231 was “Dose-dependent effect” each time. For the same compound, the IC50 in the assay on MCF7 (setting [1]) amounted to 6.5 µM; with MDA-MB-231 (setting [2]), 61.2 µM.
In the case of `Cc1cc(=O)oc2cc(-c3cc4ccccc4s3)c3c(c12)OC(C)(C)C=C3`, the results for the IC50 in the assay with MCF7 (setting [1]) and in the assay on MDA-MB-231 (setting [2]) were 25.4 µM and greater than 100 µM, respectively.
In the case of `O=c1cc(-c2ccccc2)c2c(O)cc(-c3cc4ccccc4s3)cc2o1`, the Activity entry with MCF7 and with MDA-MB-231 was “Dose-dependent effect” in each case. The values for the IC50 with MCF7 (setting [1]) and in the assay on MDA-MB-231 (setting [2]) were 7.6 µM and 10.6 µM, respectively.
As for `CC1(C)C=Cc2c(-c3cc4ccccc4s3)cc3oc(=O)cc(-c4ccccc4)c3c2O1`, the IC50 in the assay on MCF7 (setting [1]) is 77.7 µM; in the assay on MDA-MB-231 (mda-mb-231), “Not Active”.
